# Experimental data from US20140348819A1, “Methods of Treating Cancer” (Dana-Farber Cancer Institute, Inc., priority 2011, published 2014).
# System: six V600E BRAF melanoma cell lines
# Experiment: Screening of recombinant RTK ligands for ability to confer resistance to BRAFi (PLX4720) or MEKi (PD184352) (Table 4)
# Type: cell-based, human
# Design: ability of recombinant RTK ligand to confer resistance / ability of recombinant RTK ligand to confer resistance (screening value): scale not given here
# Procedure, shortened: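 Resistance to BRAFi (PLX4720) or MEKi (PD184352) was tested in six V600E BRAF melanoma lines given one of 22 recombinant RTK ligands. For a subset of RTKs, activation was checked by high-throughput tyrosine kinase phosphorylation profiling and western blot.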
substance,measurement,setting,value
FGF1,ability of recombinant RTK ligand to confer resistance,"A2058, PD184352 - 1 uM, ligand 0.4 ng/ml",1.04
same,ability of recombinant RTK ligand to confer resistance,"A2058, PD184352 - 1 uM, ligand 1.6 ng/ml",1.05
same,ability of recombinant RTK ligand to confer resistance,"A2058, PD184352 - 1 uM, ligand 6.25 ng/ml",1.04
same,ability of recombinant RTK ligand to confer resistance,"A2058, PD184352 - 1 uM, ligand 25 ng/ml",1.12
same,ability of recombinant RTK ligand to confer resistance,"A2058, PD184352 - 1 uM, ligand 100 ng/ml",1.19
same,ability of recombinant RTK ligand to confer resistance,"A2058, PLX4720 - 2 uM, ligand 0.4 ng/ml",1.02
same,ability of recombinant RTK ligand to confer resistance,"A2058, PLX4720 - 2 uM, ligand 1.6 ng/ml",1.01
same,ability of recombinant RTK ligand to confer resistance,"A2058, PLX4720 - 2 uM, ligand 6.25 ng/ml",0.96
same,ability of recombinant RTK ligand to confer resistance,"A2058, PLX4720 - 2 uM, ligand 25 ng/ml",1.05
same,ability of recombinant RTK ligand to confer resistance,"A2058, PLX4720 - 2 uM, ligand 100 ng/ml",1.11
same,ability of recombinant RTK ligand to confer resistance,"C32, PD184352 - 1 uM, ligand 0.4 ng/ml",1.01
same,ability of recombinant RTK ligand to confer resistance,"C32, PD184352 - 1 uM, ligand 1.6 ng/ml",1.04
same,ability of recombinant RTK ligand to confer resistance,"C32, PD184352 - 1 uM, ligand 6.25 ng/ml",1.03
same,ability of recombinant RTK ligand to confer resistance,"C32, PD184352 - 1 uM, ligand 25 ng/ml",1.02
same,ability of recombinant RTK ligand to confer resistance,"C32, PD184352 - 1 uM, ligand 100 ng/ml",0.97
same,ability of recombinant RTK ligand to confer resistance,"C32, PLX4720 - 2 uM, ligand 0.4 ng/ml",1.11
same,ability of recombinant RTK ligand to confer resistance,"C32, PLX4720 - 2 uM, ligand 1.6 ng/ml",1.10
same,ability of recombinant RTK ligand to confer resistance,"C32, PLX4720 - 2 uM, ligand 6.25 ng/ml",1.08
same,ability of recombinant RTK ligand to confer resistance,"C32, PLX4720 - 2 uM, ligand 25 ng/ml",0.93
same,ability of recombinant RTK ligand to confer resistance,"C32, PLX4720 - 2 uM, ligand 100 ng/ml",1.00
same,ability of recombinant RTK ligand to confer resistance,"Colo 829, PD184352 - 1 uM, ligand 0.4 ng/ml",1.02
same,ability of recombinant RTK ligand to confer resistance,"Colo 829, PD184352 - 1 uM, ligand 1.6 ng/ml",1.11
same,ability of recombinant RTK ligand to confer resistance,"Colo 829, PD184352 - 1 uM, ligand 6.25 ng/ml",1.00
same,ability of recombinant RTK ligand to confer resistance,"Colo 829, PD184352 - 1 uM, ligand 25 ng/ml",1.08
same,ability of recombinant RTK ligand to confer resistance,"Colo 829, PD184352 - 1 uM, ligand 100 ng/ml",1.12
same,ability of recombinant RTK ligand to confer resistance,"Colo 829, PLX4720 - 2 uM, ligand 0.4 ng/ml",0.99
same,ability of recombinant RTK ligand to confer resistance,"Colo 829, PLX4720 - 2 uM, ligand 1.6 ng/ml",1.09
same,ability of recombinant RTK ligand to confer resistance,"Colo 829, PLX4720 - 2 uM, ligand 6.25 ng/ml",1.02
same,ability of recombinant RTK ligand to confer resistance,"Colo 829, PLX4720 - 2 uM, ligand 25 ng/ml",1.07
same,ability of recombinant RTK ligand to confer resistance,"Colo 829, PLX4720 - 2 uM, ligand 100 ng/ml",1.06
same,ability of recombinant RTK ligand to confer resistance,"G-361, PD184352 - 1 uM, ligand 0.4 ng/ml",0.99
same,ability of recombinant RTK ligand to confer resistance,"G-361, PD184352 - 1 uM, ligand 1.6 ng/ml",1.09
same,ability of recombinant RTK ligand to confer resistance,"G-361, PD184352 - 1 uM, ligand 6.25 ng/ml",0.99
same,ability of recombinant RTK ligand to confer resistance,"G-361, PD184352 - 1 uM, ligand 25 ng/ml",1.08
same,ability of recombinant RTK ligand to confer resistance,"G-361, PD184352 - 1 uM, ligand 100 ng/ml",1.04
same,ability of recombinant RTK ligand to confer resistance,"G-361, PLX4720 - 2 uM, ligand 0.4 ng/ml",0.96
same,ability of recombinant RTK ligand to confer resistance,"G-361, PLX4720 - 2 uM, ligand 1.6 ng/ml",0.95
same,ability of recombinant RTK ligand to confer resistance,"G-361, PLX4720 - 2 uM, ligand 6.25 ng/ml",0.92
same,ability of recombinant RTK ligand to confer resistance,"G-361, PLX4720 - 2 uM, ligand 25 ng/ml",0.89
same,ability of recombinant RTK ligand to confer resistance,"G-361, PLX4720 - 2 uM, ligand 100 ng/ml",1.08
same,ability of recombinant RTK ligand to confer resistance,"SK-MEL-5, PD184352 - 1 uM, ligand 0.4 ng/ml",0.98
same,ability of recombinant RTK ligand to confer resistance,"SK-MEL-5, PD184352 - 1 uM, ligand 1.6 ng/ml",1.07
same,ability of recombinant RTK ligand to confer resistance,"SK-MEL-5, PD184352 - 1 uM, ligand 6.25 ng/ml",1.14
same,ability of recombinant RTK ligand to confer resistance,"SK-MEL-5, PD184352 - 1 uM, ligand 25 ng/ml",1.17
same,ability of recombinant RTK ligand to confer resistance,"SK-MEL-5, PD184352 - 1 uM, ligand 100 ng/ml",1.36
same,ability of recombinant RTK ligand to confer resistance,"SK-MEL-5, PLX4720 - 2 uM, ligand 0.4 ng/ml",1.01
same,ability of recombinant RTK ligand to confer resistance,"SK-MEL-5, PLX4720 - 2 uM, ligand 1.6 ng/ml",1.12
same,ability of recombinant RTK ligand to confer resistance,"SK-MEL-5, PLX4720 - 2 uM, ligand 6.25 ng/ml",1.12
same,ability of recombinant RTK ligand to confer resistance,"SK-MEL-5, PLX4720 - 2 uM, ligand 25 ng/ml",1.09
same,ability of recombinant RTK ligand to confer resistance,"SK-MEL-5, PLX4720 - 2 uM, ligand 100 ng/ml",1.28
same,ability of recombinant RTK ligand to confer resistance,"SK-MEL-28, PD184352 - 1 uM, ligand 0.4 ng/ml",1.05
same,ability of recombinant RTK ligand to confer resistance,"SK-MEL-28, PD184352 - 1 uM, ligand 1.6 ng/ml",0.87
same,ability of recombinant RTK ligand to confer resistance,"SK-MEL-28, PD184352 - 1 uM, ligand 6.25 ng/ml",0.90
same,ability of recombinant RTK ligand to confer resistance,"SK-MEL-28, PD184352 - 1 uM, ligand 25 ng/ml",0.92
same,ability of recombinant RTK ligand to confer resistance,"SK-MEL-28, PD184352 - 1 uM, ligand 100 ng/ml",1.06
same,ability of recombinant RTK ligand to confer resistance,"SK-MEL-28, PLX4720 - 2 uM, ligand 0.4 ng/ml",1.00
same,ability of recombinant RTK ligand to confer resistance,"SK-MEL-28, PLX4720 - 2 uM, ligand 1.6 ng/ml",1.02
same,ability of recombinant RTK ligand to confer resistance,"SK-MEL-28, PLX4720 - 2 uM, ligand 6.25 ng/ml",1.10
same,ability of recombinant RTK ligand to confer resistance,"SK-MEL-28, PLX4720 - 2 uM, ligand 25 ng/ml",0.98
same,ability of recombinant RTK ligand to confer resistance,"SK-MEL-28, PLX4720 - 2 uM, ligand 100 ng/ml",1.08
